Read-outs that look alike come from different tables or passages of the source.
Key:
[1] = target: human TYK2 (JH2domain-pseudokinase) (Homo sapiens (Human), UniProt P29597); assay: TYK2 JH2 Domain Binding Assay (KINOMEscan)
Outline: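 Pseudokinase domain binding was measured by qPCR of tagged, bead-retained kinase after 1 h room-temperature competition, with 0.9% DMSO and compound up to 30,000 nM in 3-fold steps. Hill-equation Kd, duplicate.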

JAK2 kinase domain (JH1) = JAK2 kinase domain (JH1) (Homo sapiens (Human), UniProt O60674); assay: JAK2 Radioactive Kinase Assay; format: biochemical; settings: for inhibition at 10 µM: read-out: JAK2 JH1% Inhibition @ 10 μM
Outline: (§1)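 Single-point screen: 10 μM test compound, radioactive kinase read-out, percent inhibition reported for each kinase domain.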

Tyk2 kinase domain (DH1) = Tyk2 kinase domain (DH1) (Homo sapiens (Human), UniProt P29597); assay: Tyk2 Radioactive Kinase Assay; format: biochemical; settings: for inhibition at 10 µM: read-out: Tyk2 JH1% Inhibition @ 10 μM
Outline: as §1

Chain of Tyk2 kinase domain (DH1) (P29597 897-1176): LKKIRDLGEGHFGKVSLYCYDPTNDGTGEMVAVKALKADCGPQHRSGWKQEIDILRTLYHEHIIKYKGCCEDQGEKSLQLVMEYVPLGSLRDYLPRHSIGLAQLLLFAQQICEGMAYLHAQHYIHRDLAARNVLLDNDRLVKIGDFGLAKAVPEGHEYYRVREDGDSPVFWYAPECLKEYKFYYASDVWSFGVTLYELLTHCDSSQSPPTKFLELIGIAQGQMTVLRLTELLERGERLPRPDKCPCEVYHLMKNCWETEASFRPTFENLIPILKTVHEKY
Chain of human TYK2 (JH2domain-pseudokinase) (P29597 556-888): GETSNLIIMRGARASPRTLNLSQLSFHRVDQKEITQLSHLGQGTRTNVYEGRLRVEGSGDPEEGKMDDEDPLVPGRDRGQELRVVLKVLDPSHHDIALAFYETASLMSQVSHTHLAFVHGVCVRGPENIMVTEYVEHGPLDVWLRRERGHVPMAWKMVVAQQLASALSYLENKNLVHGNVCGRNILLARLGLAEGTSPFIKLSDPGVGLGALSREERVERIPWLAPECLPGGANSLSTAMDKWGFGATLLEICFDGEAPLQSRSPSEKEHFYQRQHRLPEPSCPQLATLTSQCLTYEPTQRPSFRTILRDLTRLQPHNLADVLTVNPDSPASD
Chain of JAK2 kinase domain (JH1) (O60674 849-1124): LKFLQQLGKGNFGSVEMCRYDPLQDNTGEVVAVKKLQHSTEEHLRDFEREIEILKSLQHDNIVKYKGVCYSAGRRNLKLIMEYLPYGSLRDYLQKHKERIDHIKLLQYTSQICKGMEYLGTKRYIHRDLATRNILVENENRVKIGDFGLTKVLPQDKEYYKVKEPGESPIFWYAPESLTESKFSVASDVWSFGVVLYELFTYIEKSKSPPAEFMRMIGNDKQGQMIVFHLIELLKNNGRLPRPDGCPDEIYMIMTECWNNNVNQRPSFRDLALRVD

SMILES | Kd [1] | inhibition at 10 µM (JAK2 kinase domain (JH1); compound at 10 μM, ATP 10 μM) | inhibition at 10 µM (Tyk2 kinase domain (DH1); compound at 10 μM, ATP 10 μM) | inhibition at 10 µM (JAK2 kinase domain (JH1); 10 μM compound, 10 μM ATP) | inhibition at 10 µM (Tyk2 kinase domain (DH1); 10 μM compound, 10 μM ATP) | JAK2 JH1% Inhibition @ 10 μM (JAK2 kinase domain (JH1); compound at 10 μM, ATP 10 μM) | Tyk2 JH1% Inhibition @ 10 μM (Tyk2 kinase domain (DH1); compound at 10 μM, ATP 10 μM)
CNc1cc(Nc2cccn(C3CCOCC3)c2=O)nc2c(C(=O)N[C@@H]3COC[C@@H]3O)cnn12 [I-674] | 0.2 to 1 nM | < 50% | < 50% |  |  |  | 
CNc1cc(Nc2cccn(C3CCN(CCF)CC3)c2=O)nc2c(C(=O)N[C@H]3CC[C@@H]3O)cnn12 [I-899] | < 0.2 nM |  |  | < 50% | < 50% |  | 
CNc1cc(-c2cn(CCN3CCCCC3)c3ncccc23)nc2c(C(=O)N[C@@H]3CC[C@@H]3O)cnn12 [I-793] | < 0.2 nM | < 50% | < 50% |  |  |  | 
CNc1cc(Nc2cccnc2O[C@H]2CC[C@H](OC)CC2)nc2c(C(=O)NC3CC3)cnn12 [I-247] | 0.2 to 1 nM | < 50% | < 50% |  |  |  | 
CNc1cc(Nc2cccnc2OC2CN(CC(F)(F)F)C2)nc2c(C(=O)NC3CC3)cnn12 [I-367] | 0.2 to 1 nM | < 50% | < 50% |  |  |  | 
CNc1cc(Nc2cccn(-c3nccs3)c2=O)nc2c(C(=O)NC3CC3)cnn12 [I-157] | < 0.2 nM | < 50% | < 50% |  |  |  | 
CNc1cc(-c2nn(C3CCOCC3)c3ncccc23)nc2c(C(=O)N[C@@H]3C[C@@H]3F)cnn12 (stereo in doubt) [I-450, N-((1R,2S)-2-fluorocyclopropyl)-7-(methylamino)-5-(1-(tetrahydro-2H-pyran-4-yl)-1H-pyrazolo[3,4-b]pyridin-3-yl)pyrazolo[1,5-a]pyrimidine-3-carboxamide] | 0.2 to 1 nM | < 50% | < 50% |  |  |  | 
CNc1cc(Nc2cccn([C@@H]3CCC[C@@H](O)C3)c2=O)nc2c(C(=O)N[C@@H]3CC[C@H]3OC)cnn12 [I-1130] | < 0.2 nM |  |  | < 50% | < 50% |  | 
CNc1cc(Nc2cccn([C@@H]3CCCOC3)c2=O)nc2c(C(=O)N[C@H]3CC[C@@H]3O)cnn12 [I-698] | < 0.2 nM | < 50% | < 50% |  |  |  | 
CNc1cc(Nc2cccn(C3CCCCC3)c2=O)nc2c(C(=O)N[C@H]3CC[C@@H]3O)cnn12 [I-1003] | 0.2 to 1 nM |  |  | < 50% | < 50% |  | 
COc1ncccc1Nc1cc(NC2CC2)n2ncc(C(=O)NC3CC3)c2n1 [I-336, N-cyclopropyl-7-(cyclopropylamino)-5-((2-methoxypyridin-3-yl)amino)pyrazolo[1,5-a]pyrimidine-3-carboxamide] | 0.2 to 1 nM | < 50% | < 50% |  |  |  | 
Cc1c(Nc2cccnc2OC(C)C)nc2c(C(=O)NC3CC3)cnn2c1N [I-207, 7-amino-N-cyclopropyl-5-((2-isopropoxypyridin-3-yl)amino)-6-methylpyrazolo[1,5-a]pyrimidine-3-carboxamide] | 1 to 10 nM | < 50% | < 50% |  |  |  | 
CNc1cc(Nc2cccn(-c3cncc(F)c3)c2=O)nc2c(C(=O)N[C@@H]3C[C@@H]3F)cnn12 [I-968] | < 0.2 nM |  |  | < 50% | < 50% |  | 
CNc1cc(Nc2cccn(C3CCCN(CCF)C3)c2=O)nc2c(C(=O)NC3CC3)cnn12 (stereo not drawn) [I-848] | < 0.2 nM |  |  | < 50% | < 50% |  | 
CNc1cc(Nc2cc(C)cn(-c3ccnn3C)c2=O)nc2c(C(N)=O)cnn12 [I-75] | 0.2 to 1 nM | < 50% | < 50% |  |  |  | 
CNc1cc(Nc2cccn(-c3ncccc3F)c2=O)nc2c(C(=O)NC[C@@H](C)CO)cnn12 [I-869] | < 0.2 nM |  |  | < 50% | < 50% |  | 
CNc1cc(Nc2cc(Cl)cn(-c3cn(C4CC4)nc3C)c2=O)nc2c(C(=O)NC3CCC3)cnn12 [I-179] | 0.2 to 1 nM | < 50% | < 50% |  |  |  | 
CNc1cc(Nc2cccn([C@H]3C[C@@H]3F)c2=O)nc2c(C(=O)N[C@@H]3CC[C@H]3O)cnn12 [I-1092] | 0.2 to 1 nM |  |  | < 50% | < 50% |  | 
CNc1cc(Nc2cccc(N3CC[C@@H](OC)C3)n2)nc2c(C(=O)NC3CC3)cnn12 [I-482] | 0.2 to 1 nM |  |  |  |  | A (percent inhibition at 10 μM lower than 50) | A (percent inhibition at 10 μM lower than 50)

Now from value to molecule, other results behind:

Kd [1] | inhibition at 10 µM (JAK2 kinase domain (JH1); compound at 10 μM, ATP 10 μM) | inhibition at 10 µM (Tyk2 kinase domain (DH1); compound at 10 μM, ATP 10 μM) | inhibition at 10 µM (JAK2 kinase domain (JH1); 10 μM compound, 10 μM ATP) | inhibition at 10 µM (Tyk2 kinase domain (DH1); 10 μM compound, 10 μM ATP) | SMILES | JAK2 JH1% Inhibition @ 10 μM (JAK2 kinase domain (JH1); compound at 10 μM, ATP 10 μM) | Tyk2 JH1% Inhibition @ 10 μM (Tyk2 kinase domain (DH1); compound at 10 μM, ATP 10 μM)
< 0.2 nM | < 50% | < 50% |  |  | CNc1cc(Nc2cccn([C@H]3CC[C@H](O)CC3)c2=O)nc2c(C(=O)NC3CC3)cnn12 [I-167] |  | 
0.2 to 1 nM | < 50% | < 50% |  |  | CNc1cc(Nc2cccn([C@@H]3CCCOC3)c2=O)nc2c(C(=O)N[C@@H]3CC[C@@H](O)C3)cnn12 [I-739] |  | 
< 0.2 nM | < 50% | < 50% |  |  | CNc1cc(Nc2cccc3ocnc23)nc2c(C(=O)N[C@H]3COC[C@H]3O)cnn12 [I-755] |  | 
1 to 10 nM | < 50% | < 50% |  |  | CNc1cc(-n2cc(N3CCCC3)c3ncccc32)nc2c(C(=O)NC3CC3)cnn12 [I-552] |  | 
< 0.2 nM |  |  | < 50% | < 50% | CNc1cc(Nc2cccn([C@@H]3C[C@H]3F)c2=O)nc2c(C(=O)N[C@H]3CC[C@H]3O)cnn12 [I-1089] |  | 
0.2 to 1 nM |  |  | < 50% | < 50% | CNc1cc(Nc2cccn([C@@H]3CCC[C@H](OC)C3)c2=O)nc2c(C(=O)N[C@H]3CC[C@@H]3O)cnn12 [I-1055] |  | 
> 10 nM | < 50% | < 50% |  |  | CNc1cc(Nc2cc(F)cn(-c3nn(C)cc3C)c2=O)nc2c(C(=O)NC3CC3)cnn12 [I-431] |  | 
0.2 to 1 nM | < 50% | < 50% |  |  | CNc1cc(Nc2cc(Cl)cnc2O[C@H]2C[C@@H](OC)C2)nc2c(C(N)=O)cnn12 [I-96] |  | 
< 0.2 nM | < 50% | < 50% |  |  | CNc1cc(Nc2cccn([C@H]3CC[C@@H](OC)CC3)c2=O)nc2c(C(=O)NC3CCC3)cnn12 [I-358] |  | 
1 to 10 nM | < 50% | < 50% |  |  | CNc1cc(Nc2cccnc2OC2COC2)nc2c(C(=O)NC3CCC3)cnn12 [I-298] |  | 
0.2 to 1 nM | < 50% | < 50% |  |  | CNc1cc(Nc2cccnc2OC(CO)CO)nc2c(C(=O)N[C@H]3C[C@H]3F)cnn12 [I-200] |  | 
< 0.2 nM | < 50% | < 50% |  |  | CNc1cc(Nc2cccn(-c3nc(C)co3)c2=O)nc2c(C(=O)N[C@H]3CC[C@H]3O)cnn12 [I-707] |  | 
< 0.2 nM | < 50% | < 50% |  |  | CNc1cc(Nc2cccnc2OC2CC2)nc2c(C(=O)N[C@H]3CC[C@H](O)C3)cnn12 (stereo in doubt) [I-461, 5-((2-cyclopropoxypyridin-3-yl)amino)-N-(3-hydroxycyclopentyl)-7-(methylamino)pyrazolo[1,5-a]pyrimidine-3-carboxamide] |  | 
0.2 to 1 nM |  |  | < 50% | < 50% | CNc1cc(Nc2cccn([C@@H]3CCC[C@@H]3O)c2=O)nc2c(C(=O)N[C@@H]3C[C@@H]3F)cnn12 [I-966] |  | 
< 0.2 nM | < 50% | < 50% |  |  | CNc1cc(Nc2cccn(-c3ccc(C)nc3)c2=O)nc2c(C(=O)NC3CC3)cnn12 [I-765, N-cyclopropyl-5-((6′-methyl-2-oxo-2H-[1,3′-bipyridin]-3-yl)amino)-7-(methylamino)pyrazolo[1,5-a]pyrimidine-3-carboxamide] |  | 
< 0.2 nM | < 50% | < 50% |  |  | CNc1cc(Nc2cccn(CC3CCCCO3)c2=O)nc2c(C(=O)NC3CC3)cnn12 (stereo not drawn) [I-364] |  | 
< 0.2 nM | < 50% | < 50% |  |  | CNc1cc(Nc2cccnc2OC)nc2c(C(N)=O)cnn12 [I-24] |  | 
< 0.2 nM | < 50% | < 50% |  |  | CNc1cc(Nc2cccc(N3CCC34COC4)n2)nc2c(C(=O)NC3CC3)cnn12 [I-708] |  | 
1 to 10 nM |  |  | < 50% | < 50% | CNc1cc(Nc2cccn(-c3cccnc3C)c2=O)nc2c(C(=O)NC3CC3)cnn12 [I-812] |  | 
0.2 to 1 nM |  |  | < 50% | < 50% | CNc1cc(Nc2cccn(C3CCN(CCF)CC3)c2=O)nc2c(C(=O)N[C@@H]3CC[C@@H]3O)cnn12 [I-897] |  | 
< 0.2 nM | < 50% | < 50% |  |  | CNc1cc(Nc2cccc([C@H]3CCCOC3)n2)nc2c(C(=O)N[C@H]3CC[C@H]3O)cnn12 [I-642] |  | 
0.2 to 1 nM | < 50% | < 50% |  |  | NC(=O)c1cnn2c(N)cc(Nc3cccn([C@H]4CC[C@H](O)CC4)c3=O)nc12 [I-50] |  | 
< 0.2 nM | < 50% | < 50% |  |  | CNc1cc(Nc2cccnc2OC2CC2)nc2c(C(=O)N[C@@H]3CCC[C@H]3O)cnn12 (stereo in doubt) [I-424, 5-((2-cyclopropoxypyridin-3-yl)amino)-N-(2-hydroxycyclopentyl)-7-(methylamino)pyrazolo[1,5-a]pyrimidine-3-carboxamide] |  | 
< 0.2 nM |  |  | < 50% | < 50% | CNc1cc(Nc2cccn([C@H]3[C@@H]4COC[C@@H]43)c2=O)nc2c(C(=O)NC3CC3)cnn12 [I-810] |  | 

— patent US10508120B2, “TYK2 inhibitors and uses thereof” (Nimbus Lakshmi, Inc., priority 2017, dated 2019)
